Results from patent US10851075B2, “Stat3 pathway inhibitors and cancer stem cell inhibitors” (Sumitomo Dainippon Pharma Oncology, Inc., priority 2007, dated 2020).
Like-named read-outs stand apart in the source and are kept apart here. One block for each compound: values may come before it.

How the values were obtained:
HeLa cells = test: MTT cell viability, HeLa; assay type: cell-based; conditions: Homo sapiens, MTT at 24 hours
Excerpt: (§1) Cell Culture: HeLa, DU145, H1299, DLD1, SW480, A549, MCF7, LN18, HCT116, HepG2, Paca2, Panel, LNcap, FaDu, HT29, and PC3 cells (ATCC, Manassas, Va.) were maintained in Dulbecco's Modified Eagle Medium (DMEM) (Invitrogen, Carlsbad, Calif.) supplemented with 10% fetal bovine serum (MS) (Gemini Bio-Products, West Sacramento, Calif.) and 5% penicillin/streptomycin/amphotercin B (Invitrogen).
(§2) Cell Viability Determination: For 3-(4,5 dimethylthiazol-2-yl)-2,5-diphenyltetrazolium (MTT) (Sigma-Aldrich, St. Louis, Mo.) analysis, cells were plated in 96 well plates at 10,000 cells per well. 24 hours after plating, compound was added to cells at indicated doses. 22 hours following compound addition, MTT was added to each well (0.5 mg/ml, final concentration) and plates were incubated for an additional 2 hours at 37° C., Medium was then aspirated and the formazan product was solubilized in 100 μl of isopropyl alcohol. The absorbance of each well was measured at 570 nm using a microplate reader.
(§3) Identification of compounds that are apoptotic to a broad spectrum of cancer cells in vitro. Cells plated in 96 well plates and treated with indicated compounds were subjected to MTT analysis at 24 hours following compound treatment to determine cell viability.

DU145 cells = test: MTT cell viability, DU145; assay type: cell-based; conditions: Homo sapiens, DU-145, MTT at 24 hours
Excerpt: as §1, §2, §3

H1299 cells = test: MTT cell viability, H1299; assay type: cell-based; conditions: Homo sapiens, NCI-H1299, MTT at 24 hours
Excerpt: as §1, §2, §3

[1] = molecular target: T1, Stat3 DNA-binding activity (Homo sapiens, UniProt P40763); test: Stat3 DNA binding assay (EMSA), HeLa nuclear extract; assay type: biochemical; conditions: for inhibition % 1 × MTT IC50: compound at 1 × MTT IC50, untreated Stat3 retarded band set as 100; for inhibition % 3 × MTT IC50: compound at 3 × MTT IC50, untreated Stat3 retarded band set as 100
T1 construct: endogenous in cells; host or cells: HeLa cells (nuclear extract)
T1 sequence (P40763 whole entry): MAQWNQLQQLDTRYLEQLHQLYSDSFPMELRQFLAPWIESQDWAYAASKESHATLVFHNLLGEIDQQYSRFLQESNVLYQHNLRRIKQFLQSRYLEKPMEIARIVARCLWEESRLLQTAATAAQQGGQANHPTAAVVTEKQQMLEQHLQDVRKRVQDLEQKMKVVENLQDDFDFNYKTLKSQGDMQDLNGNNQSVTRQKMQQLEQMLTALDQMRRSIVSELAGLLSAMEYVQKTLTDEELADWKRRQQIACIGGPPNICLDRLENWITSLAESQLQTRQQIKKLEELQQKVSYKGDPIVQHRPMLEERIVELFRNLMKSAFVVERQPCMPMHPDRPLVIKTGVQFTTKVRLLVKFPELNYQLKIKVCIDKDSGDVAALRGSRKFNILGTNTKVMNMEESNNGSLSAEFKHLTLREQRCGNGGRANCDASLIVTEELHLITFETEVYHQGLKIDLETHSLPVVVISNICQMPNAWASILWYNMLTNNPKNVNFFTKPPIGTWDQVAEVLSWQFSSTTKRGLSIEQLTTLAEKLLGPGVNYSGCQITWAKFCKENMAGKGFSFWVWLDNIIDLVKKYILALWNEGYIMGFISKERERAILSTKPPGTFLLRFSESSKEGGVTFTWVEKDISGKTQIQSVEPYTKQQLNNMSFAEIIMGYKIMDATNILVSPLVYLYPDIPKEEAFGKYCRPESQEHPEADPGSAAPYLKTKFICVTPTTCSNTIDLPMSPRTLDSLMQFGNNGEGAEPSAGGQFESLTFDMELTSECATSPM
Experimental: STAT3 DNA Binding Assay: Electrophoretic mobility shift assay (EMSA) was performed as described by the manufacturer (Li-Cor Biosciences, Lincoln, Nebr.). Briefly, nuclear extracts were made from HeLa cells using the NucBuster Protein Extraction Kit as described by the manufacturer (EMD Biosciences, San Diego, Calif.). 5 μg of nuclear extract was pre-incubated with the indicated dose of indicated compound for 30 minutes prior to a 15-minute incubation with the IR700-labeled consensus Stat3 oligonucleotide. Samples were then electrophoresed on a polyacrylamide gel and directly scanned using the Odyssey infrared imaging system (Li-Cor Biosciences). For the enzyme-linked immunosorbent assay (ELISA), 5 μg of nuclear extract was preincubated with indicated concentration of indicated compound for 30 minutes prior to the addition of biotinylated oligo (5′-Biotin-[…]-3′). Stat3-DNA complexes were then captured on streptavidin coated 96 well plates (Pierce, Rockford, Ill.). Bound complexes were then incubated with Stat3 polyclonal antibody (Santa Cruz Biotechnology, Santa Cruz, Calif.) followed by anti-rabbit HRP conjugated secondary antibody (GE Healthcare, Pittsburgh, Pa.). Bound antibody was then visualized by addition of TMB substrate (Pierce) and absorbance measured at 450 nm.
Inhibition of Stat3 DNA-binding activity. Nuclear extracts from HeLa cells, which contain constitutively activated Stat3 as detected by phoshporylation at the tyrosine 705 residue, were used to perform Stat3 EMSAs to monitor Stat3 DNA binding activity. Nuclear extracts were incubated with indicated compound prior to incubation with IR700-labeled Stat3 consensus oligonucleotide. Binding of Stat3 to the oligonucleotide was monitored by gel electrophoresis and detection using a LiCor Odyssey infrared scanner.
To calculate the inhibition %, the density of the untreated Stat3 retarded band (control) was set as 100 and the inhibition % was the difference between the control and the relative DNA binding activity of the drug-treated samples.

DLD1 cells = test: MTT cell viability, DLD1; assay type: cell-based; conditions: Homo sapiens, DLD-1; DLD1, Colon; MTT at 24 hours; Table 3
Excerpt: as §1, §2, §3

SW480 cells = test: MTT cell viability, SW480; assay type: cell-based; conditions: Homo sapiens; SW480, Colon; MTT at 24 hours; Table 3
Excerpt: as §1, §2, §3

Paca2 cells = test: MTT cell viability, Paca2; assay type: cell-based; conditions: PaCa-2; Paca2, Pancreas; MTT at 24 hours; Table 3
Excerpt: as §1, §2, §3

Panc1 cells = test: MTT cell viability, Panc1; assay type: cell-based; conditions: Homo sapiens, PANC-1; Panc1, Pancreas; MTT at 24 hours; Table 3
Excerpt: as §1, §2, §3

PC3 cells = test: MTT cell viability, PC3; assay type: cell-based; conditions: Homo sapiens, PC-3; PC3, Prostate; MTT at 24 hours; Table 3
Excerpt: as §1, §2, §3

[2] = tested on: Stat3 transcription activity; test: Stat3-luciferase (Stat3-Luc) reporter assay in HeLa cells, OSM stimulated; assay type: cell-based; conditions: Homo sapiens, compound 30 minutes before 25 ng/ml oncostatin M, 6 hours, read-out: IC50 in Stat3-Luc assays
Experimental: Luciferase Reporter Assay: HeLa Cells were co-transfected with Stat3-luciferase (Stat3-Luc) reporter vector (Panomics, Fremont, Calif.) and Renilla luciferase (Promega, Madison, Wis.) using Lipofectamine 2000 as described by the manufacturer (Invitrogen). Following transfection, cells were maintained in medium containing 0.5% FBS for 24 hours. Cells were then treated with the indicated compound for 30 minutes prior to the addition of 25 ng/ml oncostatin M (OSM) (R&D Systems, Minneapolis, Minn.) to the medium. 6 hours following OSM addition, cells were harvested and levels of firefly and renilla luciferase were measured using the Dual-Glo Luciferase Assay System as described by the manufacturer (Promega).
Inhibition of Stat3 transcription activity. Compounds were tested for their ability to inhibit Stat3 transcription activation activity in cells using a Stat3-luciferase (Stat3-luc) reporter construct. Cells transfected with Stat3-luc were cultured in reduced serum medium prior to addition of indicated compound for 30 minutes. Cells were then stimulated with 25 ng/ml oncostatin (OSM) for 6 hours followed by detection of Stat3-luc reporter activity.

SW480 Hoechst SP cells = test: Anti-CSC MTT assay, SW480 Hoechst side population (SP) cells; assay type: cell-based; conditions: Homo sapiens, 48 h
Experimental: as §2
(§4) Hoechst Side Population: To identify and isolate side population (SP) and non-SP fractions, SW480 cells were removed from the culture dish with trypsin and EDTA, pelleted by centrifugation, washed with phosphate-buffered saline (PBS), and resuspended at 37° C. in Dulbecco's modified Eagle's medium (DMEM) containing 2% FBS and 1 rnM HEPES. The cells were then labeled with Hoechst 33342 (Invitrogen) at a concentration of 5 μg/mL. The labeled cells were incubated for 120 minutes at 37° C., either alone or with 50 μM verapamil (Sigma-Aldrich, St. Louis). After staining, the cells were suspended in Hanks' balanced saline solution (MISS; Invitrogen) containing 2% FBS and 1 mM HEPES, passed a through 40 μm mesh filter, and maintained at 4° C. until flow cytometry analysis. The Hoechst dye was excited at 350 nm, and its fluorescence was measured at two wavelengths using a 450 DF10 (450/20 nm band-pass filter) and a 675LP (675 nm long-pass edge filter) optical filter. The gating on forward and side scatter was not stringent, and only debris was excluded.
(§5) In order to test compounds for anti-CSC activity, freshly isolated CSCs (SW480 Hoechst SP cells or CD44^high FaDu cells) were exposed to a dose range (30-0.117 μM) of compound for 48 h before examining cell viability by MTT assay. IC50s were estimated by plotting the percentage of surviving cells. As shown in Table 7 and Table 8, the compounds of present invention can target cancer stem cells.

SW480 NSP cells = test: Anti-CSC MTT assay, SW480 non-SP (NSP) cells; assay type: cell-based; conditions: Homo sapiens, 48 h
Experimental: as §2, §4, §5

A549 cells = test: MTT cell viability, A549; assay type: cell-based; conditions: Homo sapiens; A549, Lung; MTT at 24 hours following compound treatment; Table 3
Excerpt: as §1, §2, §3

MCF7 cells = test: MTT cell viability, MCF7; assay type: cell-based; conditions: Homo sapiens; MCF7, Breast; MTT at 24 hours; Table 3
Excerpt: as §1, §2, §3

HCT116 cells = test: MTT cell viability, HCT116; assay type: cell-based; conditions: Homo sapiens, HCT-116; HCT116, Colon; MTT at 24 hours; Table 3
Excerpt: as §1, §2, §3

HT29 cells = test: MTT cell viability, HT29; assay type: cell-based; conditions: Homo sapiens, HT-29; HT29, Colon; MTT at 24 hours; Table 3
Excerpt: as §1, §2, §3

[3] = Hela, Table 4, read-out: IC50 (μM) Hela
[4] = DU145, Table 4, read-out: IC50 (μM) DU145
[5] = H1299, Table 4, read-out: IC50 (μM) H1299
[6] = H1299, Lung, Table 3, read-out: IC50
[7] = HeLa, Cervix, Table 3, read-out: IC50
[8] = DU145, Prostate, Table 3, read-out: IC50

IC50 (H1299 cells; [5]): 0.794 µM
IC50 (HeLa cells; [3]): 3.36 µM
inhibition % 1 × MTT IC50 [1]: 20%
inhibition % 3 × MTT IC50 [1]: 26%
SMILES: CC(O)c1cc2c(o1)C(=O)c1ccccc1C2=O (stereo not shown) [Compound 301]

IC50 (DU145 cells; [4]): 1.41 µM
SMILES: O=C(O)c1cc2c(o1)C(=O)c1ccccc1C2=O [Compound 405]

IC50 (H1299 cells; [5]): 8.4 µM
IC50 (HeLa cells; [3]): 13 µM
IC50 (DU145 cells; [4]): 6.5 µM
SMILES: CCc1cc2c(o1)C(=O)c1cc(Cl)ccc1C2=O [Compound 105]

IC50 (H1299 cells; [5]): 14.1 µM
IC50 (HeLa cells; [3]): 14.7 µM
IC50 (DU145 cells; [4]): 0.616 µM
SMILES: O=C(c1ccc(O)c(O)c1)c1cc2c(s1)C(=O)c1ccccc1C2=O [Compound 411]

IC50 (DU145 cells; [4]): 1.76 µM
SMILES: C=Cc1cc2c(o1)C(=O)c1ccccc1C2=O [Compound 201]

The remaining lines, values behind:

SMILES: Cc1cc2c(o1)C(=O)c1ccccc1C2=O [Compound 102]
IC50 (HeLa cells; [3]): 11.4 µM

SMILES: O=C(c1ccccc1)c1cc2c(o1)C(=O)c1cc(F)ccc1C2=O [Compound 419]
IC50 (DU145 cells; [4]): 1.82 µM

SMILES: O=C(c1ccc([N+](=O)[O-])cc1)c1cc2c(s1)C(=O)c1ccccc1C2=O [Compound 403]
IC50 (H1299 cells; [5]): 4 µM
IC50 (DU145 cells; [4]): 6.5 µM

SMILES: O=C(c1ccccc1)c1cc2c(s1)C(=O)c1ccccc1C2=O [Compound 402]
IC50 (H1299 cells; [6]): 1.04 µM
IC50 (H1299 cells; [5]): 1.04 µM
IC50 (HeLa cells; [7]): 2.01 µM
IC50 (HeLa cells; [3]): 2.01 µM
IC50 (DLD1 cells): 2510 nM
IC50 (SW480 cells): 1490 nM
IC50 (Paca2 cells): 490 nM
IC50 (Panc1 cells): 7210 nM
IC50 (DU145 cells; [8]): 0.55 µM
IC50 (DU145 cells; [4]): 0.554 µM
IC50 (PC3 cells): 8480 nM
IC50 [2]: ~750 nM
inhibition % 1 × MTT IC50 [1]: 29%
inhibition % 3 × MTT IC50 [1]: 57%
IC50 (SW480 Hoechst SP cells): 0.4 µM
IC50 (SW480 NSP cells): 0.38 µM

SMILES: CC(=O)c1cc2c(o1)C(=O)c1cc(Cl)ccc1C2=O [Compound 416]
IC50 (A549 cells): 1900 nM
IC50 (H1299 cells; [6]): 0.25 µM
IC50 (H1299 cells; [5]): 0.337 µM
IC50 (MCF7 cells): 750 nM
IC50 (HeLa cells; [7]): 0.62 µM
IC50 (HeLa cells; [3]): 0.711 µM
IC50 (DLD1 cells): 540 nM
IC50 (SW480 cells): 440 nM
IC50 (HCT116 cells): 690 nM
IC50 (HT29 cells): 1910 nM
IC50 (Paca2 cells): 210 nM
IC50 (Panc1 cells): 2590 nM
IC50 (DU145 cells; [8]): 0.22 µM
IC50 (DU145 cells; [4]): 0.211 µM
IC50 (PC3 cells): 3100 nM
inhibition of Stat3 DNA binding (in words) ([1]; HeLa nuclear extract, FIG. 6A/6B): inhibits Stat3 DNA-binding activity

SMILES: COc1ccc(C(=O)c2cc3c(s2)C(=O)c2ccccc2C3=O)cc1 [Compound 407]
IC50 (H1299 cells; [5]): 4.11 µM
IC50 (HeLa cells; [3]): 3.78 µM
IC50 (DU145 cells; [4]): 2.1 µM
IC50 [2]: ~5000 nM

SMILES: CCc1cc2c(o1)C(=O)c1ccccc1C2=O [Compound 101]
IC50 (H1299 cells; [5]): 3 to 10 µM
IC50 (HeLa cells; [3]): 11.7 µM
IC50 (DU145 cells; [4]): 3.7 µM
